Data taken from patent US12545673B2, “Imidazopyridine derivative and pharmaceutical composition comprising same as active ingredient” (TSD LIFE SCIENCES CO., LTD., priority 2019, dated 2026).
pIC50: −log10 of the molar value. Where two headings read alike, the source gives them in different places.

Columns and labels:
[1] = tested on: acute lymphoblastic leukemia cell line Jurkat; assay: Cancer cell proliferation inhibitory activity evaluation 2 (CCK-8), Jurkat; format: cell-based; conditions: Homo sapiens
influenza virus LE = assay: microbe, parasite or virus in culture; format: cell-based; conditions: for EC50: unidentified influenza virus, MDCK, read-out: Antiviral activity (EC50, μM) LE
influenza virus PR8 = assay: microbe, parasite or virus in culture; format: cell-based; conditions: for EC50: unidentified influenza virus, PR8, MDCK, read-out: Antiviral activity (EC50, μM) PR8
MLK1 = MLK1 (Homo sapiens (Human), UniProt P80192); assay: Evaluation of inhibitory activity of enzyme units, MLK1 ([γ-33P]-ATP filter assay); format: biochemical
influenza virus HK = assay: microbe, parasite or virus in culture; format: cell-based; conditions: for EC50: unidentified influenza virus, MDCK, read-out: Antiviral activity (EC50, μM) HK
MLK2 = MLK2 (Homo sapiens (Human), UniProt Q02779); assay: Evaluation of inhibitory activity of enzyme units, MLK2 ([γ-33P]-ATP filter assay); format: biochemical
in vitro = conditions: dog
MLK3 = MLK3 (Homo sapiens (Human), UniProt Q16584); assay: Evaluation of inhibitory activity of enzyme units, MLK3 ([γ-33P]-ATP filter assay); conditions: for IC50: read-out: IC50(nM) MLK3
[2] = tested on: gastric cancer cell line AGS; assay: Cancer cell proliferation inhibitory activity evaluation 2 (CCK-8), AGS; format: cell-based; conditions: Homo sapiens, read-out: Cancer cell proliferation inhibitory activity AGS
[3] = tested on: acute myeloid leukemia cell line U937; assay: Cancer cell proliferation inhibitory activity evaluation 2 (CCK-8), U937; format: cell-based; conditions: Homo sapiens, read-out: Cancer cell proliferation inhibitory activity U937
[4] = tested on: human breast cancer cell line MDA-MB-231; assay: Cancer cell proliferation inhibitory activity evaluation 1 (CCK-8), MDA-MB-231; format: cell-based
Experimental: (§1) In order to identify whether the compound has anticancer activity, the human breast cancer cell line MDA-MB-231, the colorectal cancer cell line HT-29, the acute myeloid leukemia cell line U937, and the chronic myeloid leukemia cell line K562 were used. The cell line was cultured using RPMI-1640 medium containing 10% fetal bovine serum. Welgene products were used as the medium, and hyclone products were used for fetal bovine serum, and 1% of antibiotics for cell culture from Gibco were used as the culture medium.

[5] = tested on: chronic myeloid leukemia cell line K562; assay: Cancer cell proliferation inhibitory activity evaluation 1 (CCK-8), K562; format: cell-based; conditions: Homo sapiens, read-out: Cancer cell proliferation inhibitory activity K562
Experimental: as §1

[6] = tested on: colorectal cancer cell line HT-29; assay: Cancer cell proliferation inhibitory activity evaluation 1 (CCK-8), HT-29; format: cell-based; conditions: Homo sapiens, read-out: Cancer cell proliferation inhibitory activity HT29
Experimental: as §1

[7] = tested on: acute myeloid leukemia cell line U937; assay: Cancer cell proliferation inhibitory activity evaluation 1 (CCK-8), U937; format: cell-based; conditions: Homo sapiens, read-out: Cancer cell proliferation inhibitory activity U937
Experimental: as §1

TGF-β1 = assay: Fibrosis inhibition evaluation 2, palmitic acid-induced HepG2, real-time PCR, TGF-β1
α-SMA = assay: Fibrosis inhibition evaluation 2, palmitic acid-induced HepG2, real-time PCR, α-SMA; conditions: palmitic acid-induced HepG2 (Table 8)
Fibronectin-1 = assay: Fibrosis inhibition evaluation 2, palmitic acid-induced HepG2, real-time PCR, Fibronectin-1
LRRK2 wild-type = LRRK2 wild-type (Homo sapiens (Human), UniProt Q5S007); assay: Evaluation of inhibitory activity against LRRK2 (affinity bead competition binding), wild-type; conditions: read-out: Residual active values (%) LRRK2; for remaining binding at 0.1 µM: 100 nM; for remaining binding at 0.5 µM: 500 nM
Outline: (§2)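 Competition binding against immobilized biotinylated ligand for DNA-tagged wild-type or G2019S LRRK2, produced from T7 phage-infected E. coli (MOI 0.4, 32° C.) lysate then HEK293 cells. Beads blocked and washed in SeaBlock buffer (1% BSA, 0.05% Tween 20, 1 mM DTT); compounds prepared as 40× stocks in 100% DMSO.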

LRRK2 mutant (G2019S) = LRRK2 mutant (G2019S) (Homo sapiens (Human), UniProt Q5S007, G2019S); assay: Evaluation of inhibitory activity against LRRK2 (affinity bead competition binding), G2019S mutant; conditions: read-out: Residual active values (%) LRRK2(G2019S); for remaining binding at 0.1 µM: 100 nM; for remaining binding at 0.5 µM: 500 nM
Outline: as §2

[8] = tested on: gastric cancer cell line Hs746T; assay: Cancer cell proliferation inhibitory activity evaluation 2 (CCK-8), Hs746T; format: cell-based; conditions: Homo sapiens
[9] = tested on: human lung cancer cell line A549; assay: Cancer cell proliferation inhibitory activity evaluation 2 (CCK-8), A549; format: cell-based
[10] = 72 h, read-out: Cancer cell proliferation inhibitory activity Jurkat
[11] = 10 μM, 72 hours, CCK-8, read-out: Cancer cell proliferation inhibitory activity Jurkat
[12] = U-937, 10 μM, 72 hours, CCK-8 (Table 3)

Sequence of LRRK2 mutant (G2019S) (Q5S007 whole entry G2019S, looked up): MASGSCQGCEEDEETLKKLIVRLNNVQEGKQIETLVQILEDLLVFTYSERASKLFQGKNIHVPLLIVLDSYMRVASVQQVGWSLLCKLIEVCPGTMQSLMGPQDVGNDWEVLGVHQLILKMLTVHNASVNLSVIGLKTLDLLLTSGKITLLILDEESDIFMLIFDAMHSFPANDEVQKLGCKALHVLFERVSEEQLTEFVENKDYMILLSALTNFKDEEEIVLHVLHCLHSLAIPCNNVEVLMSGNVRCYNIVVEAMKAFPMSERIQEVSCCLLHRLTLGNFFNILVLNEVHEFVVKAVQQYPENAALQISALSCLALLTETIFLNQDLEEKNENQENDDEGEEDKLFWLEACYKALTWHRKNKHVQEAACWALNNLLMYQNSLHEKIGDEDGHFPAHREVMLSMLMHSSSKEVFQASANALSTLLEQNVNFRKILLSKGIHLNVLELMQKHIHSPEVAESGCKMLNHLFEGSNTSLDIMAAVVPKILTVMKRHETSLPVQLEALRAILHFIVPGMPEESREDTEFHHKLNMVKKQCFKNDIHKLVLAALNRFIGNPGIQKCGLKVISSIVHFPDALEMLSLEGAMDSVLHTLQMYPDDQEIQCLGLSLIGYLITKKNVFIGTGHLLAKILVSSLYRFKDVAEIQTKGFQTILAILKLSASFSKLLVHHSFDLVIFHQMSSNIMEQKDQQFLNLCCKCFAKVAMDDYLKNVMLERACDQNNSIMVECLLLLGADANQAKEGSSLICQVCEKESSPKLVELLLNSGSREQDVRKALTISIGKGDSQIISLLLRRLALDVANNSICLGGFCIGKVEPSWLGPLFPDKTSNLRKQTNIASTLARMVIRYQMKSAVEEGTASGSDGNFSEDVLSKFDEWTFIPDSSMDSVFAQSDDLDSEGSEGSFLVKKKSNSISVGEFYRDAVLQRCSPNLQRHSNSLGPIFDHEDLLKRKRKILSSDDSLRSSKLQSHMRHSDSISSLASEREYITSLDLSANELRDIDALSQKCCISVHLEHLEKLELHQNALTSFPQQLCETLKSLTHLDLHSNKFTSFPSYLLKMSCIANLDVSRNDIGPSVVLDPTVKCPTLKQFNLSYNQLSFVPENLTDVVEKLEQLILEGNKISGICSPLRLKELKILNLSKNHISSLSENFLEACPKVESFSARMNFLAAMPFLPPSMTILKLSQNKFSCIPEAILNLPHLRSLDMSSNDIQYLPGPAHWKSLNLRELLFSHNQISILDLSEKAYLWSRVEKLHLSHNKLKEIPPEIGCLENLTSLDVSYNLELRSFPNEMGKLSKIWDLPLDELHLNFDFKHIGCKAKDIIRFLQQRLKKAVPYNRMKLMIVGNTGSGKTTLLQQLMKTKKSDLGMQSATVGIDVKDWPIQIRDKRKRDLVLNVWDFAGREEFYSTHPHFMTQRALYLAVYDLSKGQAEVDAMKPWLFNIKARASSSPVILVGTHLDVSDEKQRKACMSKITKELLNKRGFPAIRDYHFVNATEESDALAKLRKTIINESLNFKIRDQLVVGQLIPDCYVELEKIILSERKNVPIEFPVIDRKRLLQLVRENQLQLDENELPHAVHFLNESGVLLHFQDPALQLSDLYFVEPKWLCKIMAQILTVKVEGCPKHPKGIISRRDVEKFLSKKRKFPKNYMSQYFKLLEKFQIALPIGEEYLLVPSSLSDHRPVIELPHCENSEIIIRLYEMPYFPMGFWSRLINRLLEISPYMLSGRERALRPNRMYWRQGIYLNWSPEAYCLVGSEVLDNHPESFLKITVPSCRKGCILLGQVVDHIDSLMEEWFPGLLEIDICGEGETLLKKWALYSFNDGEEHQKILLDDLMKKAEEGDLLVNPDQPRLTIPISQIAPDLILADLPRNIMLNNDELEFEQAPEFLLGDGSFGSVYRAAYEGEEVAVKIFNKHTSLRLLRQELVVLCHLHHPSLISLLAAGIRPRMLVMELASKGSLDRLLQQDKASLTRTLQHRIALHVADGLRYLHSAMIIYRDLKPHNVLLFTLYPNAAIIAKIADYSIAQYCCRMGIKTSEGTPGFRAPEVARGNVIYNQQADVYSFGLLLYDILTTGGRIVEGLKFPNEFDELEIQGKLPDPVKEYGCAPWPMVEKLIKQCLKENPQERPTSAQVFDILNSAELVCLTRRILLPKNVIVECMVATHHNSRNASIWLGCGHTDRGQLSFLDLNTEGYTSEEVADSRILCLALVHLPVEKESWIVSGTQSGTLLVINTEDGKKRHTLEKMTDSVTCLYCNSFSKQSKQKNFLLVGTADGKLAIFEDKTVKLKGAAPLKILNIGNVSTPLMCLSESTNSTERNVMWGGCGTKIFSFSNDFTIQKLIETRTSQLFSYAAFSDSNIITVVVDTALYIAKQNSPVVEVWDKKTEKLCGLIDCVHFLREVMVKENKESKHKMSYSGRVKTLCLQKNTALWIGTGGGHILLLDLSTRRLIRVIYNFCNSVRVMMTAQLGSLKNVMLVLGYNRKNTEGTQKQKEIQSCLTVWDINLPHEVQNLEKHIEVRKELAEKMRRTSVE
Sequence of MLK2 (Q02779 whole entry, looked up): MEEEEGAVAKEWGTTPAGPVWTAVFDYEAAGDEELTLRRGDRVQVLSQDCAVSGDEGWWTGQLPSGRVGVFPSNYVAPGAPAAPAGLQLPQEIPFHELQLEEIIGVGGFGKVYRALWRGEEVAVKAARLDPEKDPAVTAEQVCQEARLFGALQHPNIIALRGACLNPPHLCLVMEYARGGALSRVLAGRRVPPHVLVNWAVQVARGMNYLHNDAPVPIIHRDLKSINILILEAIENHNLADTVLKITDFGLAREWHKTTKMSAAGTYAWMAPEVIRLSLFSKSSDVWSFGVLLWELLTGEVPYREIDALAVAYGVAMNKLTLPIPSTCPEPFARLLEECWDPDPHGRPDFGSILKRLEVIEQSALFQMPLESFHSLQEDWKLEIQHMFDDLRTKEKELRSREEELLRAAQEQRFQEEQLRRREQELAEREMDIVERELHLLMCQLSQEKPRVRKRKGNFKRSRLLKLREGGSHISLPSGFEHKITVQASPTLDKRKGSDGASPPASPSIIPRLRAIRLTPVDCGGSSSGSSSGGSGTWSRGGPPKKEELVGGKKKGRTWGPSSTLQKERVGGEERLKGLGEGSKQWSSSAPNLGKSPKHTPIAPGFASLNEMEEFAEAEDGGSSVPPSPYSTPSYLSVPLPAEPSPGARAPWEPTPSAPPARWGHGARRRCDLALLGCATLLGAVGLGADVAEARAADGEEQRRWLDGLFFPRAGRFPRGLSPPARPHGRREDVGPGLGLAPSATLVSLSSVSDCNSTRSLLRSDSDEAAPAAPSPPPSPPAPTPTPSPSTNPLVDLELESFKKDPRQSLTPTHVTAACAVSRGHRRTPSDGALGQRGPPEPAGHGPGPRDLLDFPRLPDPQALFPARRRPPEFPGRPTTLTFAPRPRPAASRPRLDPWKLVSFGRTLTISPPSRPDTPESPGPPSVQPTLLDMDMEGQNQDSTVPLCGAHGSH
Sequence of MLK1 (P80192 whole entry, looked up): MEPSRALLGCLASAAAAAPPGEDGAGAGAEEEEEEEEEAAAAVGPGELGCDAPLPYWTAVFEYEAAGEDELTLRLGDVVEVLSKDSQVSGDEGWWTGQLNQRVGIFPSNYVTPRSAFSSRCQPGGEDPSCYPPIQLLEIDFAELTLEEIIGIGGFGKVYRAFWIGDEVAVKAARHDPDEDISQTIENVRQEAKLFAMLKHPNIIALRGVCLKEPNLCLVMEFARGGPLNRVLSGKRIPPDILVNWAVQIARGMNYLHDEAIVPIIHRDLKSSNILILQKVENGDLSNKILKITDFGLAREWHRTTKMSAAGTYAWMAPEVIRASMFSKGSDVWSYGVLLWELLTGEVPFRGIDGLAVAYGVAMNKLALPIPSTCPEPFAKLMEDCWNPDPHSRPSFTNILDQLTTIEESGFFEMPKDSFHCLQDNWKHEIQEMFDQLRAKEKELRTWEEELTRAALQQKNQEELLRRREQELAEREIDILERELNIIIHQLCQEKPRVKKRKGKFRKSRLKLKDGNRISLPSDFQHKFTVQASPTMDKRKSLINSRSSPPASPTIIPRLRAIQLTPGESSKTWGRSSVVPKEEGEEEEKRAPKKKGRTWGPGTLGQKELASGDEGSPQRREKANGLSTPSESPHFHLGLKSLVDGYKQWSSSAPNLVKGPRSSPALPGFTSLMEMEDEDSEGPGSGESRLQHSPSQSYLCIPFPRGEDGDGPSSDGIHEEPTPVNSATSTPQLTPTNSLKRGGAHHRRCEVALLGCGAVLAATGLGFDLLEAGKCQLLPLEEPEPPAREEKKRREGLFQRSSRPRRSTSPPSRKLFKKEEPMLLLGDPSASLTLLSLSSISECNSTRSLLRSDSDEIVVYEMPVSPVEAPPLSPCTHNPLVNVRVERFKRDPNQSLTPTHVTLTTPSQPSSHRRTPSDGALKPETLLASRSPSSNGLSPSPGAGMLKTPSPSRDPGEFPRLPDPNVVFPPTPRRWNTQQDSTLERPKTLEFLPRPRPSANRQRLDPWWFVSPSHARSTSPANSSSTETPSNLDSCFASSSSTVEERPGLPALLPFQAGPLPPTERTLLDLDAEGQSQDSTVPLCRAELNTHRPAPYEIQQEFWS
Sequence of LRRK2 wild-type (Q5S007 whole entry, looked up): as the sequence (Q5S007 whole entry G2019S, looked up) above, with S2019G counted along it

SMILES	inhibition at 10 µM [1, 10] [%]	EC50 (influenza virus LE) [µM]	EC50 (influenza virus PR8) [µM]	IC50 (MLK1) [nM]	Selectivity index: CC50/EC50 HK (influenza virus HK)	EC50 (influenza virus HK) [µM]	IC50 (MLK2) [nM]	CC50 at 3 days (in vitro) [nM]	IC50 (MLK3) [nM]	inhibition at 10 µM ([2]; 72 h) [%]	inhibition at 10 µM ([3]; U-937, 72 h) [%]	inhibition at 10 µM [1, 11] [%]	inhibition at 10 µM ([2]; 10 μM, 72 hours, CCK-8) [%]	inhibition at 10 µM [3, 12] [%]	Relative degree of expression inhibition (%) TGF-β1 (TGF-β1) [%]	Relative degree of expression inhibition (%) α-SMA (α-SMA) [%]	Relative degree of expression inhibition (%) Fibronectin-1 (Fibronectin-1) [%]	remaining binding at 0.1 µM (LRRK2 wild-type) [%]	remaining binding at 0.5 µM (LRRK2 wild-type) [%]	remaining binding at 0.1 µM (LRRK2 mutant (G2019S)) [%]	also measured
CCS(=O)(=O)N1CC[C@H](Nc2c(Br)cnc3nc(-c4cc(C)n(-c5cccc(S(N)(=O)=O)c5)c4C)[nH]c23)C1 [Example 23, (S)-3-(3-(6-bromo-7-((1-(ethylsulfonyl)pyrrolidine-3-yl)amino)-1H-imidazo[4,5-b]pyridine-2-yl)-2,5-dimethyl-1H-pyrrol-1-yl)benzenesulfonamide]	> 50	> 100	> 100	25	>3.2	31.6	56	> 100000	17	10 to 50	10 to 50	–	–	–	–	–	–	–	–	–	–
CCS(=O)(=O)N1CC[C@H](Nc2c(Br)cnc3nc(-c4cc(C)n(-c5ccc(OCCN6CCOCC6)cc5)c4C)[nH]c23)C1 [Example 4, (S)-6-bromo-2-(2,5-dimethyl-1-(4-(2-morpholinoethoxy)phenyl)-1H-pyrrol-3-yl)-N-(1-(ethylsulfonyl)pyrrolidine-3-yl)-1H-imidazo[4,5-b]pyridine-7-amine]	–	9.9	11.1	–	>10.2	9.8	–	> 100000	–	–	–	> 50	> 50	> 50	–	–	–	–	–	–	Selectivity index: CC50/EC50 LE (influenza virus LE): >10.1; inhibition at 10 µM ([4]; MDA-MB-231, 10 μM, 72 hours, CCK-8, read-out: Cancer cell proliferation inhibitory activity MDAMB231): 10 to 50%; inhibition at 10 µM ([5]; K562, 10 μM, 72 hours, CCK-8): > 50%; inhibition at 10 µM ([6]; HT-29, 10 μM, 72 hours, CCK-8): > 50%; inhibition at 10 µM ([7]; U-937, 10 μM, 72 hours, CCK-8 (Table 2)): > 50%
Cc1cc(-c2nc3c(Nc4ccc5c(c4)OCO5)c(Br)cnc3[nH]2)c(C)n1-c1cccc(S(N)(=O)=O)c1 [Example 44, 3-(3-(7-(benzo[d][1,3]dioxole-5-yl-amino)-6-bromo-3H-imidazo[4,5-b]pyridine-2-yl)-2,5-dimethyl-1H-pyrrol-1-yl)benzenesulfonamide]	–	–	–	109	–	–	211	–	27	–	–	10 to 50	10 to 50	10 to 50	57.05	73.45	75.60	–	–	–	–
CCS(=O)(=O)N1CC[C@H](Nc2c(Br)cnc3nc(-c4cc(C)n(-c5cc(C(=O)NCCN(C)C)ccc5C)c4C)[nH]c23)C1 [Example 93, 3-(3-(6-bromo-7-(((S)-1-(ethylsulfonyl)pyrrolidine-3-yl)amino)-1H-imidazo[4,5-b]pyridine-2-yl)-2,5-dimethyl-1H-pyrrol-1-yl)-N-(2-(dimethylamino)ethyl)-4-methylbenzamide]	> 50	–	–	33	–	–	–	–	54	> 50	> 50	–	–	–	42.54	73.82	74.05	60	51	66	remaining binding at 0.5 µM (LRRK2 mutant (G2019S)): 25%; inhibition at 10 µM ([8]; 72 h, read-out: Cancer cell proliferation inhibitory activity Hs746T): > 50%; inhibition at 10 µM ([9]; A549, 72 h, read-out: Cancer cell proliferation inhibitory activity A549): 10 to 50%
CCS(=O)(=O)N1CC[C@H](Nc2c(Br)cnc3[nH]c(-c4cc(C)n(-c5cccc(N6CCOCC6)c5)c4C)nc23)C1 [Example 2, (S)-6-bromo-2-(2,5-dimethyl-1-(3-morpholinophenyl)-1H-pyrrol-3-yl)-N-(1-(ethylsulfonyl)pyrrolidine-3-yl)-3H-imidazo[4,5-b]pyridine-7-amine]	10 to 50	–	–	–	–	–	–	–	4	> 50	10 to 50	–	–	–	97.39	48.35	77.72	17	3.5	4	remaining binding at 0.5 µM (LRRK2 mutant (G2019S)): 0.8%; inhibition at 10 µM ([4]; MDA-MB-231, 72 h, read-out: Cancer cell proliferation inhibitory activity MDAMB231): > 50%; inhibition at 10 µM ([5]; K562, 72 h): > 50%; inhibition at 10 µM ([6]; HT-29, 72 h): > 50%; inhibition at 10 µM ([7]; U-937, 72 h): > 50%
CCS(=O)(=O)N1CC[C@H](Nc2c(Br)cnc3[nH]c(-c4cc(C)n(-c5cc(S(N)(=O)=O)ccc5Cl)c4C)nc23)C1 [Example 17, 3-(3-(6-bromo-7-(((S)-1-(ethylsulfonyl)pyrrolidine-3-yl)amino)-3H-imidazo[4,5-b]pyridine-2-yl)-2,5-dimethyl-1H-pyrrol-1-yl)-4-chlorobenzenesulfonamide]	–	> 100	92.9	–	>9.3	10.8	–	> 100000	–	–	–	> 50	> 50	10 to 50	–	–	–	–	–	–	Selectivity index: CC50/EC50 PR8 (influenza virus PR8): >1.1; pIC50 (MLK3): 7.92
Cc1ccc(NC(=O)CN2CCOCC2)cc1-n1c(C)cc(-c2nc3ncc(Br)c(Nc4cccc(S(N)(=O)=O)c4)c3[nH]2)c1C [Example 88, N-(3-(3-(6-bromo-7-((3-sulfamoylphenyl)amino)-1H-imidazo[4,5-b]pyridine-2-yl)-2,5-dimethyl-1H-pyrrol-1-yl)-4-methylphenyl)-2-morpholinoacetamide]	–	–	–	82	–	–	–	–	52	–	–	> 50	> 50	10 to 50	56.45	74.86	86.78	73	46	57	remaining binding at 0.5 µM (LRRK2 mutant (G2019S)): 19%; inhibition at 10 µM ([8]; 10 μM, 72 hours, CCK-8, read-out: Cancer cell proliferation inhibitory activity Hs746T): > 50%; inhibition at 10 µM ([9]; A549, 10 μM, 72 hours, CCK-8, read-out: Cancer cell proliferation inhibitory activity A549): 10 to 50%
COCCOc1ccc(Nc2c(Br)cnc3[nH]c(-c4cc(C)n(-c5ccc6c(c5)OCO6)c4C)nc23)cc1 [Example 45, 2-(1-(benzo[d][1,3]dioxole-5-yl)-2,5-dimethyl-1H-pyrrol-3-yl)-6-bromo-N-(4-(2-methoxyethoxy)phenyl)-3H-imidazo[4,5-b]pyridine-7-amine]	–	–	–	85	–	–	524	–	32	–	–	< 10	10 to 50	10 to 50	33.15	74.97	60.64	–	–	–	–
